Data taken from PubChem BioAssay (NCI).
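Where inhibition never reached the appropriate level, the endpoint shown equals the highest concentration tested. Otherwise, values were interpolated linearly from a five-concentration, 48-hour dose response in 96-well plates. Abbreviation: GI50, concentration required for 50% inhibition of growth. TGI is the concentration that stops growth completely.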

Experiments:
Test in all cases: DTP human tumour cell line panel, 48 h
[1] = system: 786-0 renal
[2] = system: A498 renal
[3] = system: A549 NSCLC
[4] = system: ACHN renal
[5] = system: BT-549 breast
[6] = system: CCRF-CEM leukemia
[7] = system: COLO 205 colon
[8] = system: DU-145 prostate
[9] = system: EKVX NSCLC
[10] = system: HCC-2998 colon
[11] = system: HCT-116 colon
[12] = system: HCT-15 colon
[13] = system: HOP-62 NSCLC
[14] = system: HOP-92 NSCLC
[15] = system: HS 578T breast
[16] = system: HT29 colon
[17] = system: IGROV1 ovarian
[18] = system: K-562 leukemia
[19] = system: KM12 colon
[20] = system: LOX IMVI melanoma
[21] = system: M14 melanoma
[22] = system: MALME-3M melanoma
[23] = system: MDA-MB-231 breast
[24] = system: MDA-MB-435
[25] = system: MOLT-4 leukemia
[26] = system: NCI-H226 lung
[27] = system: NCI-H23 lung
[28] = system: NCI-H460 lung
[29] = system: NCI-H522 lung
[30] = system: NCI/ADR-RES ovarian
[31] = system: OVCAR-3 ovarian
[32] = system: OVCAR-4 ovarian
[33] = system: OVCAR-5 ovarian
[34] = system: PC-3 prostate
[35] = system: RPMI-8226 leukemia
[36] = system: RXF 393 renal
[37] = system: SF-268 CNS
[38] = system: SF-295 CNS
[39] = system: SF-539 CNS
[40] = system: SK-MEL-2 melanoma
[41] = system: SK-MEL-28 melanoma
[42] = system: SK-MEL-5 melanoma
[43] = system: SK-OV-3 ovarian
[44] = system: SN12C renal
[45] = system: SNB-19 CNS
[46] = system: SNB-75 CNS
[47] = system: SR leukemia
[48] = system: SW-620 colon
[49] = system: T-47D breast
[50] = system: TK-10 renal
[51] = system: U251 CNS
[52] = system: UACC-257 melanoma
[53] = system: UACC-62 melanoma
[54] = system: UO-31 renal

## Cc1cc2c(cc1C)[n+](Cc1ccc3ccccc3n1)cn2Cc1ccc2ccccc2n1
[1]
  GI50: 1540 nM
  TGI: 3030 nM
[2]
  GI50: 1040 nM
  TGI: 2360 nM
[3]
  GI50: 2830 nM
  TGI: 13000 nM
[4]
  GI50: 3060 nM
  TGI: 10600 nM
[5]
  GI50: 1320 nM
  TGI: 3200 nM
[6]
  GI50: 1830 nM
  TGI: 12800 nM
[7]
  GI50: 387 nM
  TGI: 1580 nM
[8]
  GI50: 1600 nM
  TGI: 6560 nM
[9]
  GI50: 2290 nM
  TGI: 11100 nM
[10]
  GI50: 1270 nM
  TGI: 2730 nM
[11]
  GI50: 407 nM
  TGI: 1740 nM
[12]
  GI50: 3040 nM
  TGI: 11400 nM
[13]
  GI50: 1270 nM
  TGI: 3130 nM
[14]
  GI50: 484 nM
  TGI: 2000 nM
[15]
  GI50: 1940 nM
  TGI: 5480 nM
[16]
  GI50: 331 nM
  TGI: 1630 nM
[17]
  GI50: 570 nM
  TGI: 2210 nM
[18]
  GI50: 527 nM
  TGI: 3000 nM
[19]
  GI50: 568 nM
  TGI: 2060 nM
[20]
  GI50: 669 nM
  TGI: 2000 nM
[21]
  GI50: 586 nM
  TGI: 2420 nM
[22]
  GI50: 783 nM
  TGI: 2560 nM
[23]
  GI50: 1090 nM
  TGI: 2520 nM
[24]
  GI50: 571 nM
  TGI: 2050 nM
[25]
  GI50: 1460 nM
  TGI: 5150 nM
[26]
  GI50: 1590 nM
  TGI: 4010 nM
[27]
  GI50: 736 nM
  TGI: 3530 nM
[28]
  GI50: 630 nM
  TGI: 2210 nM
[29]
  GI50: 704 nM
  TGI: 2470 nM
[30]
  GI50: 16700 nM
  TGI: 50900 nM
[31]
  GI50: 628 nM
  TGI: 2120 nM
[32]
  GI50: 1240 nM
  TGI: 4090 nM
[33]
  GI50: 1300 nM
  TGI: 6890 nM
[34]
  GI50: 948 nM
  TGI: 2980 nM
[35]
  GI50: 301 nM
  TGI: 1620 nM
[36]
  GI50: 1170 nM
  TGI: 2450 nM
[37]
  GI50: 1270 nM
  TGI: 3020 nM
[38]
  GI50: 1120 nM
  TGI: 2630 nM
[39]
  GI50: 899 nM
  TGI: 2530 nM
[40]
  GI50: 1570 nM
  TGI: 3120 nM
[41]
  GI50: 992 nM
  TGI: 2470 nM
[42]
  GI50: 471 nM
  TGI: 1590 nM
[43]
  GI50: 1690 nM
  TGI: 4130 nM
[44]
  GI50: 792 nM
  TGI: 2170 nM
[45]
  GI50: 910 nM
  TGI: 2360 nM
[46]
  GI50: 1430 nM
  TGI: 3870 nM
[47]
  GI50: 1120 nM
  TGI: 3210 nM
[48]
  GI50: 1070 nM
  TGI: 2920 nM
[49]
  GI50: 393 nM
  TGI: 2930 nM
[50]
  GI50: 1380 nM
  TGI: 2740 nM
[51]
  GI50: 926 nM
  TGI: 2200 nM
[52]
  GI50: 1230 nM
  TGI: 3180 nM
[53]
  GI50: 612 nM
  TGI: 2100 nM
[54]
  GI50: 1330 nM
  TGI: 2840 nM
